The values below are quoted from earlier work in patent US20060078583A1, “Device for delivering an anti-microbial composition” (priority 2004, published 2006).

Data set [1] concerns rhinoviral infections (colds). The conditions noted are these: subjects who used iodine products.
The next data set concerns rhinovirus. Conditions: on skin.

As to `II` [iodine], in data set [1], the “number of colds versus placebo users” value is “significantly fewer colds than placebo users”. Also, the residual anti-rhinoviral activity result with rhinovirus is on record as “provides residual anti-rhinoviral activity on skin”.
